Experimental data published in patent US20140336248A1, “THERAPEUTIC COMPOSITIONS AND RELATED METHODS OF USE” (priority 2011, published 2014).

Experiments:
ICR mice [1] = assay: Tolerability 5.0, 10.0 mg/kg orally in 1% ethanol/4% propylene glycol/5% Solutol HS 15 (Example J); assay type: in vivo, mouse
Protocol: Fompositions for oral administration were prepared as follows: A) 1.0 mg/mL composition: 5.05 mg of salinomycin sodium was added to 50 μL ethanol and vortexed for 1 minute to yield a clear solution. 200 μL of propylene glycol was then added and vortexed for 1 minute, yielding a clear solution. To this solution was next added 250 μL Solutol® HS 15, with vortexing for 1 minute and sonicating for 1 minute, to yield a clear solution.
(§1) Six male ICR mice (Sino-British SIPPR/BK Lab Animal Ltd, Shanghai, China) were assigned to control and treatment groups. […] The individual animal number marked on the tail, and study number comprised a unique identification for each animal. Animal identification was verified during the course of the study. The animals were housed two per cage in stainless steel suspended cage in an environmentally controlled room. SLACOM (Rodent Diet #20110615029, Shanghai SLAC Laboratory Animal Co. Ltd.) was available ad libitum. Temperature and humidity were monitored and recorded twice daily.
Each composition and the vehicle (control) were administered once daily to each of two mice via oral gavage for 5 consecutive days. The dose levels for the treated groups and the control group are in the below table. Individual doses were based on the most recent body weight.
(§2) Body weights for all animals were measured and recorded at receipt, prior to randomization, and once daily during the study. Body weight change was calculated for mean value of animals relative to Day 1 mean body weight value.

ICR mice [2] = assay: Tolerability IV in 10% ethanol/10% Solutol HS 15, 5 days (Example K); assay type: in vivo, mouse; conditions: for Clinical observations: post dosage
Protocol: (§3) Injectable salinomycin compositions were prepared as follows: 0.6 mg/mL stock solution: 1.2 mg of salinomycin sodium was added to 200 μL ethanol and vortexed for 2 minutes and sonicated for 30 seconds to yield a clear solution. To this solution was next added 200 μL Solutol® HS 15, with vortexing for 2 minutes. Finally, 1.6 mL water was added to produce a clear stock solution of 0.6 mg/mL salinomycin sodium.
as §1
(§4) Each composition and the vehicle (control) were administered once daily to each of two mice via intravenous bolus injection for 5 consecutive days. The dose levels for the treated groups and the control group are in the below table. Individual doses were based on the most recent body weight.
as §2

ICR mice [3] = assay: Tolerability IV in 5% ethanol/15% Solutol HS 15, 5 days (Example L); assay type: in vivo, mouse; conditions: for Clinical observations: one animal
Protocol: as §3, with “to 100” for “to 200”, “for 2 minutes” for “for 30 seconds”, “added 300” for “added 200”, “for 1 minute.” for “for 2 minutes.”
as §1, §4, §2

ICR mice [4] = assay: Tolerability 0.1, 0.3, 1.0 mg/kg IV in 3% propylene glycol/10% Solutol HS 15, 4 days (Example O); assay type: in vivo, mouse; conditions: for Body weight: FIG. 8
Protocol: as §1, with “Using the techniques described above in Example A, an aqueous vehicle comprising 3% propylene glycol (v/v) and 10% Solutol® HS 15 (v/v) was prepared. An appropriate amount of salinomycin sodium was dissolved into the vehicle to make solutions having concentrations of 0.02, 0.06, and 0.2 mg/mL. Eight male ICR” for “Six male ICR”, “animal number was marked on” for “animal number marked on”
Each composition and the vehicle (control) were administered once daily to each of two mice via intravenous bolus injection for 4 consecutive days. The dose levels for the treated groups and the control group are in the below table. Individual doses were based on the most recent body weight.
as §2

[5] = assay type: physicochemical
Text: The precipitate observed in Batch A in Example S was isolated and subjected to XRPD analysis. Comparative evaluation was done as shown in FIG. 11 using (1) API used in the formulation (Batch C, manufactured by Neuland Laboratories Ltd., India) and (2) API from a different lot (Batch D).

With CC[C@@H](C(=O)[C@@H](C)[C@@H](O)[C@H](C)[C@@H]1O[C@@H]([C@@H](CC)C(=O)O)CC[C@@H]1C)[C@H]1O[C@]2(C=C[C@@H](O)[C@]3(CC[C@@](C)([C@H]4CC[C@](O)(CC)[C@H](C)O4)O3)O2)[C@H](C)C[C@@H]1C [salinomycin sodium] as the molecule, how does the Abnormalities detected (ICR mice [1]; 5, 10 mg/kg oral gavage once daily 5 days, 1% ethanol/4% propylene glycol/5% Solutol HS 15) read?
The Abnormalities detected was “no abnormalities”.

What about the “Body weight change relative to Day 1” value (ICR mice [1]; 5, 10 mg/kg oral gavage once daily 5 days, 1% ethanol/4% propylene glycol/5% Solutol HS 15, FIG. 3) of the same molecule?
Its value is “all groups added weight”.

What about the “Maximum oral tolerated dosage” value (ICR mice [1]; oral gavage once daily 5 days, male ICR mice) of the same molecule?
The value was “at least 10 mg/kg”.

What about the Clinical observations (ICR mice [2]; 0.1 mg/kg IV once daily 5 days) of the same molecule?
The Clinical observations was “decreased activity (e.g., more time spent laying prostrate), rapid breathing, and partially-closed eyelids”.

And the Clinical observations (ICR mice [2]; 0.3 mg/kg IV once daily 5 days)?
The Clinical observations was “decreased activity levels, partially-closed eyelids, and skin cold to the touch”.

And the “Body weight change relative to Day 1” value (ICR mice [2]; 0.1, 0.3 mg/kg IV once daily 5 days, FIG. 4)?
The value was “all groups added weight”.

What about the Clinical observations (ICR mice [3]; 0.1 mg/kg IV once daily 5 days) of the same molecule?
The Clinical observations was “decreased activity immediately after dosing on day 1”.

What about the Clinical observations (ICR mice [3]; 0.3 mg/kg IV once daily 5 days) of the same molecule?
Its Clinical observations is “hypersensitivity to touch after dosing on day 1”.

And the “Body weight change relative to Day 1” value (ICR mice [3]; 0.1, 0.3 mg/kg IV once daily 5 days, FIG. 5)?
The value was “all groups added weight”.

What about the Clinical observations (ICR mice [4]; 0.1 mg/kg IV once daily 4 days) of the same molecule?
Its Clinical observations is “no abnormalities”.

What about the Clinical observations (ICR mice [4]; 0.3 mg/kg IV once daily 4 days, after initial administration, no abnormalities on days 2, 3, 4) of the same molecule?
Its Clinical observations is “slight decrease in activity”.

And the Body weight (ICR mice [4]; 1 mg/kg IV once daily 4 days)?
Its Body weight is “decreased steadily”.

And the Clinical observations (ICR mice [4]; 1.0 mg/kg IV once daily 4 days, no abnormalities on days 2, 3, 4)?
The Clinical observations was “decreased activity and leaning”.

What about the Body weight (ICR mice [4]; 0.1 and 0.3 mg/kg IV once daily 4 days) of the same molecule?
Its Body weight is “remained relatively stable”.

What about the “Solubility (conclusion)” value [5] of the same molecule?
The value was “inadequate solubility”.

What about the “Solid form by XRPD” value ([5]; API used in the formulation along with API of a different lot) of the same molecule?
Its value is “amorphous nature”.
